The subject of this assay is Human immunodeficiency virus 1. In words: Compound was tested for antiretroviral activity against HIV; compound found active. Format: functional, organism-based.

Active and inactive are the calls of the source. The rule behind the calls is not given here.

In the case of `O=c1[nH]cnc2c1ncn2[C@H]1CC[C@@H](CO)O1`, the outcome was Active.

For the origin of these results see ChEMBL document CHEMBL1131736, “Lipase-catalyzed protection of the hydroxy groups of the nucleosides inosine and 2'-deoxyinosine: a new chemoenzymatic synthesis of the antiviral drug 2',3'-dideoxyinosine” (Bioorg Med Chem Lett, 1999).
